Target: T1, human 11β-HSD1 (Homo sapiens, UniProt P28845)
T1 construct: expressed in transfected cells; host or cells: HEK-293 cells, stably transfected; cell lysate
Assay: 11β-HSD1 reductase activity (conversion of radiolabelled cortisone to cortisol) in lysates of stably transfected HEK-293 cells
Type: biochemical
Conditions: 10 μM CBX, 100 nM cortisone substrate

T1 sequence (P28845 whole entry): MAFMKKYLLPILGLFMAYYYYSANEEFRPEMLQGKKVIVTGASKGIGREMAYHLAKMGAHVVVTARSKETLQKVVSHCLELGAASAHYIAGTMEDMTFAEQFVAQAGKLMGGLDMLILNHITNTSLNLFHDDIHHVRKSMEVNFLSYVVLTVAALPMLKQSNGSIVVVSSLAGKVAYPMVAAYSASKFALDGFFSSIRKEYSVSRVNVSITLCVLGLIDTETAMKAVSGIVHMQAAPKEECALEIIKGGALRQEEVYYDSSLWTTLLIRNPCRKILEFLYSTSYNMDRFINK

CC1(C)[C@@H](OC(=O)CCC(=O)O)CC[C@]2(C)[C@H]3C(=O)C=C4[C@@H]5C[C@@](C)(C(=O)O)CC[C@]5(C)CC[C@@]4(C)[C@]3(C)CC[C@@H]12 [CBX, carbenoxolone]
11β-HSD1 % of control: 4.43 % of control
